The test system of assay [1] is monoclonal anti-H antibody. Description: Hapten inhibition of anti-H antibody binding to mH1-12 cells (indirect immunofluorescence). Particulars: antibody preincubated with hapten, 20 mM. On the set-up: species or system mouse. As for the experimental part: (§1) Immunofluoroscence was performed on cells plated on 8-well tissue culture chamber slides (Lab-Tek). Cells were plated at a density of 5×10^4/well 24 h prior to analysis. Anti-H and anti-A primary antibodies were diluted in PBS containing bovine serum albumin at 2 mg/ml, to a final concentration of 10 μg/ml. Cell-bound primary antibodies were detected with FITC-conjugated goat anti-mouse IgM, diluted to 40 μg/ml in PBS containing 2 mg/ml bovine serum albumin.
(§2) Hapten Inhibition—Plated cells were washed twice with PBS, and were incubated for 30 min at 4° C. with 100 μl of diluted anti-H antibody, or with 100 μl of diluted antibody containing different oligosaccharide haptens, each at a concentration of 20 mM. The chambers were then washed twice, and 100 μl of FITC-conjugated goat anti-mouse IgM was added. After 30 min at 4° C., the chambers were washed three times with PBS, and the cells were fixed at room temperature for 10 min in 3.7% formaldehyde in PBS. The cells were washed twice with PBS, the chambers were removed, and the slide was mounted in PBS containing 25% glycerol. Cells were examined by fluorescence microscopy using a Zeiss Axiophot photomicroscope equipped with fluorescence epiillumination.

In assay [2] the target is T1, agglutinin from Erythrina cristagalli (ECA) (Erythrina crista-galli, UniProt P83410).
T1 construct: purchased E-Y Labs (San Mateo, Calif.)
T1 sequence (P83410 1-239): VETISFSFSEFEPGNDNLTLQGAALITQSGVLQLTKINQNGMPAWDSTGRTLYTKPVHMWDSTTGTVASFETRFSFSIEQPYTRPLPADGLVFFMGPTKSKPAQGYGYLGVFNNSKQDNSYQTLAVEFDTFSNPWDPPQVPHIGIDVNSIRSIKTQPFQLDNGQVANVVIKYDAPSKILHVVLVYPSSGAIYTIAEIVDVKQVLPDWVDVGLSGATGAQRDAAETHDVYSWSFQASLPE
Description: Hapten inhibition of FITC-ECA binding to L cells (FACS). Particulars: FITC-labeled ECA preincubated with hapten. On the procedure:
These would represent potential acceptor molecules for a complementing human (α-1,2)fucosyltransferase activity and would allow the resulting surface-expressed Fucα(1,2)Gal linkages to be detected with anti-H antibody. The agglutinin from Erythrina cristagalli (ECA) was used for this analysis. […] L cells were stained with purified, FITC-labeled ECA, or with FITC-labeled ECA that had been preincubated with the hapten N-acetyllactosamine and were subjected to FACS analysis.

Assay [3] has as its system monoclonal anti-H antibody (BE2). Description: Hapten inhibition of BE2 anti-H antibody binding to mH1-12 cells. On the set-up: species or system mouse. As to conditions: antibody preincubated with hapten, 20 mM. As for the experimental part: as §1, §2

For `CC(=O)N[C@H]1C(O)O[C@H](CO)[C@@H](O[C@@H]2O[C@H](CO)[C@H](O)[C@H](O)[C@H]2O)[C@@H]1O` (some centres unmarked) [N-acetyllactosamine], the “inhibition of anti-H antibody binding to mH1-12 cells by hapten” value (“inhibition of anti-H antibody binding” below) in assay [1] is recorded as “does not inhibit”. Further, the “inhibition of ECA binding to L cells by hapten” value in assay [2] is given as “effectively inhibited”.

As to `OC[C@H]1O[C@@H](O[C@H]2[C@H](O)[C@@H](O)C(O)O[C@@H]2CO)[C@H](O)[C@@H](O)[C@H]1O` (some centres unmarked) [lactose], the “inhibition of anti-H antibody binding” value in assay [1] was “does not inhibit”.

With “Fucα(1,2)Galβ(1,4)Glc [2-fucosyllactose]”, the “inhibition of anti-H antibody binding” value in assay [1] is given as “blocked”. In assay [3], the “inhibition of BE2 anti-H antibody binding to mH1-12 cells by hapten” value was “inhibition of binding”.
